In ChEMBL document CHEMBL1138233, “New iantherans from the marine sponge Ianthella quadrangulata: novel agonists of the P2Y(11) receptor” (J Med Chem, 2007):
Active and inactive are the calls of the source. The calls are words filed in the database; no cut-off is given here.

Columns and labels:
P2Y purinoceptor 11 = biological target: T1, P2Y purinoceptor 11 (Homo sapiens, UniProt Q96G91); assay: Agonist activity at P2Y11 receptor expressed in 1321N1 cells assessed as cytosolic calcium level; assay type: functional, cell-based
T1 sequence (Q96G91 whole entry): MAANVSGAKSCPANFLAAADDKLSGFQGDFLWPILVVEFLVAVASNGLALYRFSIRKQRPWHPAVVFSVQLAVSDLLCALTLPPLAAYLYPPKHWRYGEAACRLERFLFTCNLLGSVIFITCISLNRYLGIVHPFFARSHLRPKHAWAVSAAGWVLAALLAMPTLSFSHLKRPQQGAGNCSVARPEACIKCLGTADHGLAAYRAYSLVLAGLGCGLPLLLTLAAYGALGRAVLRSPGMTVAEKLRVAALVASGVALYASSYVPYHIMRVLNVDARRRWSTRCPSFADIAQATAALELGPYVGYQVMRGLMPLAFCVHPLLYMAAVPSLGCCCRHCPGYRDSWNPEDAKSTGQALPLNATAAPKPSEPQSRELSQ

[1] = Toxicity against 1321N1 cells expressing P2Y2 receptor at 1 to 10 uM; assay type: cell-based; settings: human, 1321-n1, 10 µM
[2] = Toxicity against 1321N1 cells expressing P2Y1 receptor at 1 to 10 uM; assay type: cell-based; settings: human, 1321-n1, 10 µM
[3] = Toxicity against 1321N1 cells expressing P2Y11 receptor at 1 to 10 uM; assay type: cell-based; settings: human, 1321-n1, 10 µM
P2Y purinoceptor 2 [4] = biological target: T2, P2Y purinoceptor 2 (Homo sapiens, UniProt P41231); assay: Agonist activity at P2Y2 receptor expressed in 1321N1 cells assessed as cytosolic calcium level at 10 uM relative to GTPgammaS control; assay type: functional, cell-based
T2 sequence (P41231 whole entry): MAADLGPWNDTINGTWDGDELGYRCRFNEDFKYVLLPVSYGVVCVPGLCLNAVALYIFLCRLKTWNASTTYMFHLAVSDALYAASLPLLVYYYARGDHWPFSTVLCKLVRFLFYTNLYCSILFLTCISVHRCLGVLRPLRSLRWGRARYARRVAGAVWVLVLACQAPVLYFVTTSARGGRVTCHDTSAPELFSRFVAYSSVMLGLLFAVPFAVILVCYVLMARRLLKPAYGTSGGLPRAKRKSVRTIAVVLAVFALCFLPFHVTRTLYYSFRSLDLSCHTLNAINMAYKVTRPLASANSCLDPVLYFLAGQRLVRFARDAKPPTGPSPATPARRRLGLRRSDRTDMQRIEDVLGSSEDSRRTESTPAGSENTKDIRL

[5] = biological target: T3, P2Y purinoceptor 11 (Homo sapiens) (UniProt Q96G91); assay: Agonist activity at P2Y11 receptor expressed in 1321N1 cells assessed as cytosolic calcium level at 10 uM relative to GTPgammaS control; assay type: functional, cell-based
T3 sequence (whole entry): T1 sequence (Q96G91 whole entry)

[6] = biological target: P2Y purinoceptor 1 (Homo sapiens) (UniProt P47900); assay: Agonist activity at P2Y1 receptor expressed in 1321N1 cells assessed as cytosolic calcium level at 10 uM relative to GTPgammaS control; assay type: functional, cell-based
P2Y purinoceptor 1 (Homo sapiens), sequence (P47900 whole entry): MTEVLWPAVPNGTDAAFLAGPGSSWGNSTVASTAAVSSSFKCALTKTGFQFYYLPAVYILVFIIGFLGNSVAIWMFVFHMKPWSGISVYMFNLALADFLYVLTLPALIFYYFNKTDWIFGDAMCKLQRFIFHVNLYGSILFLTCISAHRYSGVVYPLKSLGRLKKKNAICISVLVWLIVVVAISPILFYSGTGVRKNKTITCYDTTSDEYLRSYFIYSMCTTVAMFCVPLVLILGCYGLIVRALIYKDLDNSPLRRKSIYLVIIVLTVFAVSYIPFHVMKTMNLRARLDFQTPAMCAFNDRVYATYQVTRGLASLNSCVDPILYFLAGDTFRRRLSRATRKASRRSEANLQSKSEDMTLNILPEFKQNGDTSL

[7] = biological target: T3, P2Y purinoceptor 11 (Homo sapiens); assay: Agonist activity at P2Y11 receptor expressed in 1321N1 cells assessed as calcium mobilization in presence of 10 uM NF340 at 1 uM; assay type: functional, cell-based
[8] = biological target: P2Y purinoceptor 1 (Homo sapiens) (UniProt P47900); assay: Agonist activity at P2Y1 receptor expressed in 1321N1 cells assessed as cytosolic calcium level at 1 uM relative to GTPgammaS control; assay type: functional, cell-based
P2Y purinoceptor 2 [9] = biological target: T2, P2Y purinoceptor 2; assay: Agonist activity at P2Y2 receptor expressed in 1321N1 cells assessed as cytosolic calcium level at 1 uM relative to GTPgammaS control; assay type: functional, cell-based
[10] = biological target: T3, P2Y purinoceptor 11 (Homo sapiens); assay: Agonist activity at P2Y11 receptor expressed in 1321N1 cells assessed as cytosolic calcium level at 1 uM relative to GTPgammaS control; assay type: functional, cell-based
[11] = biological target: T3, P2Y purinoceptor 11 (Homo sapiens); assay: Agonist activity at P2Y11 receptor expressed in 1321N1 cells assessed as calcium mobilization in presence of 10 uM NF340 at 3.6 uM; assay type: functional, cell-based
P2Y purinoceptor 2 [12] = biological target: T2, P2Y purinoceptor 2; assay: Agonist activity at P2Y2 receptor expressed in 1321N1 cells assessed as cytosolic calcium level; assay type: functional, cell-based

EC50 (P2Y purinoceptor 11)	Activity (P2Y purinoceptor 2 [4])	Activity [5]	Activity [6]	Activity [7]	Activity [8]	Activity (P2Y purinoceptor 2 [9])	Activity [10]	Activity [11]	EC50 (P2Y purinoceptor 2 [12])	SMILES	Activity [1]	Activity [2]	Activity [3]
–	< 37.5%	< 37.5%	< 37.5%	–	–	–	–	–	–	COc1c(Br)cc(/C=C(\OS(=O)(=O)[O-])C(=O)O)cc1Br.[Na+]	Non-toxic	Non-toxic	Non-toxic
–	< 37.5%	< 37.5%	< 37.5%	–	–	–	–	–	–	COc1c(Br)cc(CC(=O)O)cc1Br	Non-toxic	Non-toxic	Non-toxic
479 nM	< 5%	114%	< 5%	inactive	< 5%	< 5%	94.6%	–	–	O=C(O)c1c(-c2ccc(O)c(Br)c2)oc2c(Br)cc(/C=C(OS(=O)(=O)[O-])/C(=C/c3cc(Br)c4oc(-c5ccc(O)c(Br)c5)cc4c3)OS(=O)(=O)[O-])cc12.[Na+].[Na+] [8-CARBOXY-ISO-IANTHERAN A]	Non-toxic	Non-toxic	Non-toxic
1290 nM	Active	Active	Active	–	–	–	Active	inactive	–	O=S(=O)([O-])OC(=C\c1cc(Br)c2oc(-c3ccc(O)c(Br)c3)cc2c1)/C(=C/c1cc(Br)c2oc(-c3ccc(O)c(Br)c3)cc2c1)OS(=O)(=O)[O-].[Na+].[Na+] [ISO-IANTHERAN A]	Non-toxic	Non-toxic	Non-toxic
–	–	–	–	–	–	–	–	–	110 nM	O=c1ccn([C@@H]2O[C@H](COP(=O)(O)OP(=O)(O)OP(=O)(O)O)[C@@H](O)[C@H]2O)c(=O)[nH]1 [URIDINE TRIPHOSPHATE]	–	–	–

SMILES	EC50 (P2Y purinoceptor 11)	Activity (P2Y purinoceptor 2 [4])	Activity [5]	Activity [6]	Activity [7]	Activity [8]	Activity (P2Y purinoceptor 2 [9])	Activity [10]	Activity [11]	EC50 (P2Y purinoceptor 2 [12])	Activity [1]	Activity [2]	Activity [3]
Nc1ncnc2c1ncn2[C@@H]1O[C@H](CO[P@](=O)(O)O[P@](=O)(O)O[P@@](=O)(O)S)[C@@H](O)[C@H]1O	63.1 nM	–	–	–	–	–	–	–	–	–	–	–	–
